One may read the IC50 as the concentration needed to halve the response being measured.

The target in test [1] is T1, human mTOR (His-tagged mTOR (1362C)) (Homo sapiens, UniProt P42345).
T1 construct: the 1362 to 2549 amino acid portion on the C terminus side of human mTOR; His tag (N); made in house
Put plainly: mTOR kinase activity inhibition assay. The test is classed as biochemical. Particulars: HTRF, read-out: IC50 against mTOR. The essentials:
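Crude His-tagged mTOR (aa 1362–2549) from stable HEK293 cells, with 8 μg/ml biotinylated peptide in 50 mM HEPES pH 7.5, 20 mM MnCl2; compound diluted in 20 μM ATP solution, reaction 3 h at room temperature. Phospho-peptide detected by HTRF (anti-phospho-S6K Thr389 cryptate/streptavidin-XL665, overnight at 4°C), 665/620 nm ratio. IC50 derived from curve fit of % inhibition.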
Background: Time-resolved FRET reads energy transfer from a long-lived donor to a nearby acceptor.

In test [2] the test system is human endometrial cancer cell strain AN3CA. Put plainly: Cell growth inhibition test (MTT), AN3CA. Particulars: AN3-CA, 72 h, 3 days culture, read-out: concentration exhibiting anti-cell effect (GI50). The test is classed as cell-based. In a few lines: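 Each cell strain is exposed to serially diluted compound for 3 days (37° C, 5% CO2), added one day after seeding at 5000 (AN3CA, HT29) or 1000 (IGROV1) cells/well. Living cells are quantified by MTT reduction over 4 h, absorbance at 540 nm, giving GI50 at 50% growth rate.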

T1 sequence (P42345 1362-2549): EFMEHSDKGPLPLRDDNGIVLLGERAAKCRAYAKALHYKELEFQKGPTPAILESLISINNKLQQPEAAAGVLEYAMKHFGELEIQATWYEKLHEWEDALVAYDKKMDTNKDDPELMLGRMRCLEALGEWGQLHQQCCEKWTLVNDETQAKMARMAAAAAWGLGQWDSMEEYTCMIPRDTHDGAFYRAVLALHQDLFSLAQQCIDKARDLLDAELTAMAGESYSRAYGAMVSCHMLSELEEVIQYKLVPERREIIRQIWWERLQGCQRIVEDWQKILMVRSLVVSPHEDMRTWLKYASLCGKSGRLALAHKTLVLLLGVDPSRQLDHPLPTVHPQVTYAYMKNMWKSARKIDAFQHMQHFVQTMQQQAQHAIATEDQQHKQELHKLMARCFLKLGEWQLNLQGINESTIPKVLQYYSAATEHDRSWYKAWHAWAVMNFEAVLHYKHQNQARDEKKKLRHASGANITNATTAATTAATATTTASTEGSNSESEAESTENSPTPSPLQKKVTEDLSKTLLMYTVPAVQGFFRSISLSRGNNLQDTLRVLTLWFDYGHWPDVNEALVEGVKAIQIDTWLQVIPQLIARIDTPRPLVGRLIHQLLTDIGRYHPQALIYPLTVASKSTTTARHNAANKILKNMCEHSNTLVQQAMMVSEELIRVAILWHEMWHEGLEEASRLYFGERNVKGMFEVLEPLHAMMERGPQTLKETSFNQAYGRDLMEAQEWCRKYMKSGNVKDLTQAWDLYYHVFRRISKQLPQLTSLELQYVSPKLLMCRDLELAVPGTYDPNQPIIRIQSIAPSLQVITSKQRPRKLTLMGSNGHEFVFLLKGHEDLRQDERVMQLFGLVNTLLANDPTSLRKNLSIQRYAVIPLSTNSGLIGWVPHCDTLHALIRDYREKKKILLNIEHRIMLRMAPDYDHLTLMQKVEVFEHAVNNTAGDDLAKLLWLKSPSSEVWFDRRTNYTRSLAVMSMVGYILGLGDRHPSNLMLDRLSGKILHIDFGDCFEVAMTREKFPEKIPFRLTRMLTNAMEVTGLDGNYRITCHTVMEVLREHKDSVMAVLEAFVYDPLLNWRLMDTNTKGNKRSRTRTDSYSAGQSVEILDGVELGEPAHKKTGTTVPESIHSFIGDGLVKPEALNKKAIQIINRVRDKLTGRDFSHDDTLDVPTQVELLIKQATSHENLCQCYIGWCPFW

Regarding `C[C@H](O)C(=O)N1CCN(c2nc3c(N4CCOCC4)nc(-c4cnc(N)nc4)nc3n2CC2CC2)CC1` [Example 88, (2S)-1-{4-[2-(2-Aminopyrimidin-5-yl)-9-(cyclopropylmethyl)-6-morpholin-4-yl-9H-purin-8-yl]piperazin-1-yl}-1-oxopropan-2-ol], the IC50 in test [1] fell in the range of 30 to 100 nM. Also, the GI50 in test [2] is not above 5000 nM.

For the molecule `CC(C)Cn1c(N2CCN(C(=O)CO)CC2)nc2c(N3CCOCC3)nc(-c3cnc(N)nc3)nc21` [Example 89, 2-{4-[2-(2-Aminopyrimidin-5-yl)-9-isobutyl-6-morpholin-4-yl-9H-purin-8-yl]piperazin-1-yl}-2-oxoethanol], the IC50 in test [1] was 10 to 30 nM. For the same molecule, in test [2], the GI50 is not above 5000 nM.

As for `CC(C)Cn1c(N2CCN(C=O)CC2)nc2c(N3CCOCC3)nc(-c3cnc(N)nc3)nc21` [Example 90, 4-[2-(2-Aminopyrimidin-5-yl)-9-isobutyl-6-morpholin-4-yl-9H-purin-8-yl]piperazine-1-carboaldehyde], the IC50 in test [1] lay in the range of 10 to 30 nM. Moreover, the GI50 in test [2] was not above 5000 nM.

With `C[C@H](O)C(=O)N1CCN(c2nc3c(N4CCOCC4)nc(-c4cnc(N)nc4)nc3n2CC2CC2)C[C@@H]1C` [Example 92, (2S)-1-{(2S)-4-[2-(2-Aminopyrimidin-5-yl)-9-(cyclopropylmethyl)-6-morpholin-4-yl-9H-purin-8-yl]-2-methylpiperazin-1-yl}-1-oxopropan-2-ol], the IC50 in test [1] lay within 10 to 30 nM. In test [2], the GI50 was not above 5000 nM.

As for `CC(C)Cn1c(N2CCN(C(=O)[C@@H](C)O)CC2)nc2c(N3CCOCC3)nc(-c3cnc(N)nc3)nc21` [Example 93], the IC50 in test [1] fell in the range of 10 to 30 nM. Moreover, in test [2], the GI50 was not above 5000 nM.

On to `C[C@H](O)C(=O)N1CCN(c2nc3c(N4CCOCC4)nc(-c4cnc(N)nc4)nc3n2CC2CC2)C[C@H]1C` [Example 95, (2S)-1-{(2R)-4-[2-(2-Aminopyrimidin-5-yl)-9-(cyclopropylmethyl)-6-morpholin-4-yl-9H-purin-8-yl]-2-methylpiperazin-1-yl}-1-oxopropan-2-ol], for which the IC50 in test [1] was in the range of 10 to 30 nM. The GI50 in test [2] is not above 5000 nM.

On to `CC(=O)N1CCN(c2nc3c(N4CCOCC4)nc(-c4cnc(N)nc4)nc3n2CC2CC2)C[C@@H]1C` [Example 96, 5-{8-[(3S)-4-Acetyl-3-methylpiperazin-1-yl]-9-(cyclopropylmethyl)-6-morpholin-4-yl-9H-purin-2-yl}pyrimidin-2-amine], for which, in test [1], the IC50 is less than 10 nM. Moreover, in test [2], the GI50 is not above 5000 nM.

Turning to `CC(=O)N1CCN(c2nc3c(N4CCOCC4)nc(-c4cnc(N)nc4)nc3n2CC2CC2)C[C@H]1C` [Example 97, 5-{8-[(3R)-4-Acetyl-3-methylpiperazin-1-yl]-9-(cyclopropylmethyl)-6-morpholin-4-yl-9H-purin-2-yl}pyrimidin-2-amine], in test [1], the IC50 was 10 to 30 nM. Moreover, the GI50 in test [2] is not above 5000 nM.

As to `CC(=O)N1[C@H](C)CN(c2nc3c(N4CCOCC4)nc(-c4cnc(N)nc4)nc3n2CC2CC2)C[C@@H]1C` [Example 98, 5-{8-[4-Acetyl-cis-3,5-dimethylpiperazin-1-yl]-9-(cyclopropylmethyl)-6-morpholin-4-yl-9H-purin-2-yl}pyrimidin-2-amine], in test [1], the IC50 is less than 10 nM. In addition, the GI50 in test [2] was not above 5000 nM.

In the case of `CC(=O)N1CCN(c2nc3c(N4CCOCC4)nc(-c4cnc(N)nc4)nc3n2CC(C)C)C[C@H]1C` [Example 99, 5-{8-[(3R)-4-Acetyl-3-methylpiperazin-1-yl]-9-isobutyl-6-morpholin-4-yl-9H-purin-2-yl}pyrimidin-2-amine], the IC50 in test [1] fell in the range of 10 to 30 nM. In addition, the GI50 in test [2] was not above 5000 nM.

Turning to `CC(C)Cn1c(N2CCN(C=O)[C@H](C)C2)nc2c(N3CCOCC3)nc(-c3cnc(N)nc3)nc21` [Example 100, (2R)-4-[2-(2-Aminopyrimidin-5-yl)-9-isobutyl-6-morpholin-4-yl-9H-purin-8-yl]-2-methylpiperazine-1-carboaldehyde], the IC50 in test [1] was in the range of 10 to 30 nM. In addition, the GI50 in test [2] is not above 5000 nM.

As for `CC(=O)N1CCN(c2nc3c(N4CCOCC4)nc(-c4cnc(N)nc4)nc3n2CC(C)C)C[C@@H]1C` [Example 101, 5-{8-[(3S)-4-Acetyl-3-methylpiperazin-1-yl]-9-isobutyl-6-morpholin-4-yl-9H-purin-2-yl}pyrimidin-2-amine], the IC50 in test [1] is less than 10 nM. Moreover, the GI50 in test [2] was not above 5000 nM.

Turning to `CC(C)Cn1c(N2CCN(C=O)[C@@H](C)C2)nc2c(N3CCOCC3)nc(-c3cnc(N)nc3)nc21` [Example 102, (2S)-4-[2-(2-Aminopyrimidin-5-yl)-9-isobutyl-6-morpholin-4-yl-9H-purin-8-yl]-2-methylpiperazine-1-carboaldehyde], the IC50 in test [1] is less than 10 nM. Moreover, in test [2], the GI50 is not above 5000 nM.

On to `CC(C)Cn1c(N2CCN(C(=O)[C@H](C)O)[C@H](C)C2)nc2c(N3CCOCC3)nc(-c3cnc(N)nc3)nc21` [Example 103, (2S)-1-{(2R)-4-[2-(2-Aminopyrimidin-5-yl)-9-isobutyl-6-morpholin-4-yl-9H-purin-8-yl]-2-methylpiperazin-1-yl}-1-oxopropan-2-ol], for which, in test [1], the IC50 was 10 to 30 nM. Also, in test [2], the GI50 is not above 5000 nM.

Turning to `CC(C)Cn1c(N2CCN(C(=O)[C@H](C)O)[C@@H](C)C2)nc2c(N3CCOCC3)nc(-c3cnc(N)nc3)nc21` [Example 104, (2S)-1-{(2S)-4-[2-(2-Aminopyrimidin-5-yl)-9-isobutyl-6-morpholin-4-yl-9H-purin-8-yl]-2-methylpiperazin-1-yl}-1-oxopropan-2-ol], in test [1], the IC50 lay in the range of 10 to 30 nM. The GI50 in test [2] was not above 5000 nM.

With `CNc1ncc(-c2nc(N3CCOCC3)c3nc(N4CCN(S(C)(=O)=O)[C@@H](C)C4)n(CC(F)(F)F)c3n2)cn1` [Example 105, N-Methyl-5-{8-[(3S)-3-methyl-4-(methylsulfonyl)piperazin-1-yl]-6-morpholin-4-yl-9-(2,2,2-trifluoroethyl)-9H-purin-2-yl}pyrimidin-2-amine], the IC50 in test [1] is less than 10 nM. For the same molecule, in test [2], the GI50 is not above 5000 nM.

With `CNc1ncc(-c2nc(N3CCOCC3)c3nc(N4CCN(S(C)(=O)=O)[C@H](C)C4)n(CC(F)(F)F)c3n2)cn1` [Example 106, N-Methyl-5-{8-[(3R)-3-methyl-4-(methylsulfonyl)piperazin-1-yl]-6-morpholin-4-yl-9-(2,2,2-trifluoroethyl)-9H-purin-2-yl}pyrimidin-2-amine], the IC50 in test [1] was less than 10 nM. In addition, the GI50 in test [2] is not above 5000 nM.

For the molecule `CNc1ncc(-c2nc(N3CCOCC3)c3nc(N4CCN(C(C)=O)[C@@H](C)C4)n(CC(F)(F)F)c3n2)cn1` [Example 107, 5-{8-[(3S)-4-Acetyl-3-methylpiperazin-1-yl]-6-morpholin-4-yl-9-(2,2,2-trifluoroethyl)-9H-purin-2-yl}-N-methylpyrimidin-2-amine], the IC50 in test [1] was less than 10 nM. For the same molecule, the GI50 in test [2] was not above 5000 nM.

As to `CNc1ncc(-c2nc(N3CCOCC3)c3nc(N4CCN(C(C)=O)[C@H](C)C4)n(CC(F)(F)F)c3n2)cn1` [Example 108, 5-{8-[(3R)-4-Acetyl-3-methylpiperazin-1-yl]-6-morpholin-4-yl-9-(2,2,2-trifluoroethyl)-9H-purin-2-yl}-N-methylpyrimidin-2-amine], the IC50 in test [1] is less than 10 nM. The GI50 in test [2] was not above 5000 nM.

The record behind these values is US8309546B2, “Morpholinopurine derivatives” (Daiichi Sankyo Company, Limited, priority 2008, dated 2012).
